Results on 25 compounds are retold here after patent US7268128B2, “1,3,5-trisubstituted-5-phenyl and 5-pyridyl pyrazolopyrimidinone derivatives having PDE7 inhibiting action” (Ausbio Pharma Co., Ltd., priority 2001, dated 2007).

Where a name gives a salt, the structure may show the parent alone.

Usually IC50 stands for the concentration that gives 50% inhibition.

In this assay the target is T1, PDE7 (type VII phosphodiesterase) (Homo sapiens, UniProt Q13946).
T1 construct: endogenous in cells; host or cells: MOLT-4 (ATCC CRL-1582), soluble fraction, HiTrapQ anion-exchange fraction
T1 sequence (Q13946 whole entry): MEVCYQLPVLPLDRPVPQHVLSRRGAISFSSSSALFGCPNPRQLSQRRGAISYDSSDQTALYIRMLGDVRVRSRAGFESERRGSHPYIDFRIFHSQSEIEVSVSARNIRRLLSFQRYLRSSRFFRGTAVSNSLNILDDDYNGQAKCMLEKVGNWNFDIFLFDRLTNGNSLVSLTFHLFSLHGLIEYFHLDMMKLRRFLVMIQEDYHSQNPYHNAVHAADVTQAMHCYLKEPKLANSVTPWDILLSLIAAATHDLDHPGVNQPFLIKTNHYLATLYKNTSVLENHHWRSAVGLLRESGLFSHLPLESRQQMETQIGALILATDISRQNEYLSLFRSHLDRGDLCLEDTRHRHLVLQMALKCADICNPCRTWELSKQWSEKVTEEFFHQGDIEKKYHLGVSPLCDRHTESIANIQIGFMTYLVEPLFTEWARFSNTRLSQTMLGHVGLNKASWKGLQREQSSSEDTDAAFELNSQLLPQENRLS
Briefly: PDE7 inhibiting activity (3H-cAMP hydrolysis, active fraction from MOLT-4 cells). Format: biochemical. Particulars: PDE7 fraction from MOLT-4 cells, 0.064 μM cAMP, 10 μM rolipram present, 2 hours at 25° C.; read-out: IC50 values for phosphodiesterase inhibiting activities (PDE7). As to the method:
To evaluate the compounds of the present invention for the ability to suppress PDE7 (type VII phosphodiesterase), the method of Biochemical Pharmacol. 48(6), 1219-1223 (1994) was partially modified to perform the following assay:
1) PDE7 (type VII phosphodiesterase) active fraction was obtained. That is, human acute lymphoblastoid lymphoma T cell strain MOLT-4 (purchasable from ATCC under ATCC No. CRL-1582) was cultured in RPMI1640 medium containing 10% fetal bovine serum to obtain 5×10^8 MOLT4 cells. The cells were harvested by centrifugation, and suspended in 10 ml of buffer A (25 mM tris-HCl, 5 mM 2-mercaptoethanol, 2 mM benzamidine, 2 mM EDTA, 0.1 mM 4-(2-aminoethyl)benzenesulfonyl hydrochloride, pH 7=7.5). The cells were homogenized in a Polytoron homogenizer, and centrifuged (4° C., 25,000 G, 10 min). The supernatant was further ultracentrifuged (4° C., 100,000 G, 60 min), and the resulting supernatant was filtered through a 0.2 μm filter to obtain a soluble fraction.
2) HiTrapQ column (5 ml×2) equilibrated with buffer A was charged with the resulting soluble fraction. Phosphodiesterase was eluted using 300 ml of buffer A containing a linear gradient solution of 0 to 0.8M sodium chloride to collect sixty 5 ml fractions. Each fraction was tested for cAMP metabolizing phosphodiesterase activity.
3) The test compounds at desired concentrations were each reacted for 2 hours at 25° C. in a reactant mixture containing 20 mM tris-HCl (pH 7.5), 1 mM MgCl2, 100 μM EDTA, 330 μg/ml bovine serum albumin, 4 μg/ml 5′-nucleotidase, 0.1 μCi^3H-cAMP (0.064 μM cAMP), 10 μM rolipram, and the type VII phosphodiesterase stored solution. QAE-Sephadex suspended in 10 mM HEPES-Na (pH 7.0) was added to the reaction mixture, and the mixture was allowed to stand for 5 minutes. Then, the supernatant was recovered, and QAE-Sephadex was further added, followed by allowing the mixture to stand for 5 minutes. Then, the resulting supernatant was measure for radioactivity.
4) IC50, as the concentration of the test compound that inhibited 50% of the metabolic activity of PDE7, was calculated for each of the compounds.
Regarding `CNCCN(C)c1ccc(-c2nc3c(c(C4CCCCC4)nn3C)c(=O)[nH]2)c(OC)c1` [Example 84, 3-Cyclohexyl-6-(2-methoxy-4-{methyl[2-(methylamino)ethyl]amino}phenyl)-1-methyl-1,5-dihydro-4H-pyrazolo[3,4-d]pyrimidin-4-one monomethanesulfonate], the IC50 is at most 10 nM.
For the compound `CCOc1cc(N2CCN(C)CC2)ccc1-c1nc2c(c(C3CCCCC3)nn2C)c(=O)[nH]1` [Example 87, 3-Cyclohexyl-6-[2-ethoxy-4-(4-methyl-1-piperazinyl)phenyl]-1-methyl-1,5-dihydro-4H-pyrazolo[3,4-d]pyrimidin-4-one monomethanesulfonate], the IC50 is at most 10 nM.
In the case of `CCOc1cc(N2CCC(NC)CC2)ccc1-c1nc2c(c(C3CCCCC3)nn2C)c(=O)[nH]1` [Example 90, 3-Cyclohexyl-6-{2-ethoxy-4-[4-(methylamino)-1-piperidinyl]phenyl}-1-methyl-1,5-dihydro-4H-pyrazolo[3,4-d]pyrimidin-4-one monomethanesulfonate] it was at most 10 nM.
In the case of `CNC1CCN(c2ccc(-c3nc4c(C)nn(C5CCCCC5)c4c(=O)[nH]3)c(OC)c2)CC1` [Example 92, 1-Cyclohexyl-5-{2-methoxy-4-[4-(methylamino)-1-piperidinyl]phenyl}-3-methyl-1,6-dihydro-7H-pyrazolo[4,3-d]pyrimidin-7-one] it was at most 10 nM; in that of `CNC1CCN(c2ccc(-c3nc4c(c(C5CCCCCC5)nn4C)c(=O)[nH]3)c(OC)c2)CC1` [Example 95, 3-Cycloheptyl-6-{2-methoxy-4-[4-(methylamino)-1-piperidinyl]phenyl}-1-methyl-1,5-dihydro-4H-pyrazolo[3,4-d]pyrimidin-4-one monomethanesulfonate], at most 10 nM.
Consider `CCNC1CCN(c2ccc(-c3nc4c(c(C5CCCCC5)nn4C)c(=O)[nH]3)c(OC)c2)CC1` [Example 97, 3-Cyclohexyl-6-{2-methoxy-4-[4-(ethylamino)-1-piperidinyl]phenyl}-1-methyl-1,5-dihydro-4H-pyrazolo[3,4-d]pyrimidin-4-one], for which the IC50 is at most 10 nM.
In the case of `CCNC1CCN(c2ccc(-c3nc4c(C)nn(C5CCCCC5)c4c(=O)[nH]3)c(OC)c2)CC1` [Example 99, 1-Cyclohexyl-5-{2-methoxy-4-[4-(ethylamino)-1-piperidinyl]phenyl}-3-methyl-1,6-dihydro-7H-pyrazolo[4,3-d]pyrimidin-7-one] it was at most 1000 nM; in that of `CNCCN(C)c1ccc(-c2nc3c(C)nn(C4CCCCC4)c3c(=O)[nH]2)c(OC)c1` [Example 103, 1-Cyclohexyl-5-(2-methoxy-4-{methyl[2-(methylamino)ethyl]amino}phenyl)-3-methyl-1,6-dihydro-7H-pyrazolo[4,3-d]pyrimidin-7-one monofumarate], at most 10 nM.
With `COc1cc(N(C)CCO)ccc1-c1nc2c(C)nn(C3CCCCC3)c2c(=O)[nH]1` [Example 107, 1-Cyclohexyl-5-{4-[(2-hydroxyethyl)(methyl)amino]-2-methoxyphenyl}-3-methyl-1,6-dihydro-7H-pyrazolo[4,3-d]pyrimidin-7-one] the figure was at most 10 nM; with `COc1cc(N2CCC(CO)CC2)ccc1-c1nc2c(C)nn(C3CCCCC3)c2c(=O)[nH]1` [Example 109, 1-Cyclohexyl-5-{4-[4-(hydroxymethyl)-1-piperidinyl]-2-methoxyphenyl}-3-methyl-1,6-dihydro-7H-pyrazolo[4,3-d]pyrimidin-7-one], at most 10 nM.
With `CNCCCN(C)c1ccc(-c2nc3c(C)nn(C4CCCCC4)c3c(=O)[nH]2)c(OC)c1` [Example 111, 1-Cyclohexyl-5-(2-methoxy-4-{methyl[3-(methylamino)propyl]amino}phenyl)-3-methyl-1,6-dihydro-7H-pyrazolo[4,3-d]pyrimidin-7-one monofumarate] the figure was at most 10 nM.
Take `COc1cc(N2CCCN(C)CC2)ccc1-c1nc2c(C)nn(C3CCCCC3)c2c(=O)[nH]1` [Example 112, 1-Cyclohexyl-5-[2-methoxy-4-(4-methyl-1,4-diazepan-1-yl)phenyl]-3-methyl-1,6-dihydro-7H-pyrazolo[4,3-d]pyrimidin-7-one]: the IC50 is at most 1000 nM.
In the case of `CCN(CCO)c1ccc(-c2nc3c(C)nn(C4CCCCC4)c3c(=O)[nH]2)c(OC)c1` [Example 115, 1-Cyclohexyl-5-{4-[(2-hydroxyethyl)(ethyl)amino]-2-methoxyphenyl}-3-methyl-1,6-dihydro-7H-pyrazolo[4,3-d]pyrimidin-7-one monohydrochloride] it was at most 1000 nM; in that of `CCOc1cc(NCCOC)ccc1-c1nc2c(c(C3CCCCC3)nn2C)c(=O)[nH]1` [Example 117, 3-Cyclohexyl-6-{2-ethoxy-4-[(2-methoxyethyl)amino]phenyl}-1-methyl-1,5-dihydro-4H-pyrazolo[3,4-d]pyrimidin-4-one], at most 10 nM; in that of `COc1cc(N2CCC(N(C)C=O)CC2)ccc1-c1nc2c(C)nn(C3CCCCC3)c2c(=O)[nH]1` [Example 118, 1-[4-(1-Cyclohexyl-3-methyl-7-oxo-6,7-dihydro-1H-pyrazolo[4,3-d]pyrimidin-5-yl)-3-methoxyphenyl]-4-piperidiny(methyl)formamide], at most 1000 nM.
As for `COc1cc(N2CCC(N(C)C(C)=O)CC2)ccc1-c1nc2c(C)nn(C3CCCCC3)c2c(=O)[nH]1` [Example 119, N-{1-[4-(1-cyclohexyl-3-methyl-7-oxo-6,7-dihydro-1H-pyrazolo[4,3-d]pyrimidin-5-yl)-3-methoxyphenyl]-4-piperidiny}-N-methylacetamide], the IC50 is at most 1000 nM.
For the compound `CCOc1cc(N2CCC(NC)CC2)ccc1-c1nc2c(C)nn(C3CCCCC3)c2c(=O)[nH]1` [Example 121, 1-Cyclohexyl-5-{2-ethoxy-4-[4-(methylamino)-1-piperidinyl]phenyl}-3-methyl-1,6-dihydro-7H-pyrazolo[4,3-d]pyrimidin-7-one], the IC50 is at most 10 nM.
Take `COc1cc(C2=CCN(C)CC2)ccc1-c1nc2c(C)nn(C3CCCCC3)c2c(=O)[nH]1` [Example 123, 1-Cyclohexyl-5-[2-methoxy-4-(1-methyl-1,2,3,6-tetrahydro-4-pyridinyl)phenyl]-3-methyl-1,6-dihydro-7H-pyrazolo[4,3-d]pyrimidin-7-one]: the half-inhibitory concentration (IC50) is at most 1000 nM.
In the case of `COc1cc(C2CCN(C)CC2)ccc1-c1nc2c(C)nn(C3CCCCC3)c2c(=O)[nH]1` [Example 124, 1-Cyclohexyl-5-[2-methoxy-4-(1-methyl-4-piperidinyl)phenyl]-3-methyl-1,6-dihydro-7H-pyrazolo[4,3-d]pyrimidin-7-one] it was at most 1000 nM; in that of `COc1cc(N2CCCNCC2)ccc1-c1nc2c(C)nn(C3CCCCC3)c2c(=O)[nH]1` [Example 125, 1-Cyclohexyl-5-[4-(1,4-diazepan-1-yl)-2-methoxyphenyl]-3-methyl-1,6-dihydro-7H-pyrazolo[4,3-d]pyrimidin-7-one], at most 10 nM; in that of `COc1cc(N2CCCN(C(C)=O)CC2)ccc1-c1nc2c(C)nn(C3CCCCC3)c2c(=O)[nH]1` [Example 126, 5-[4-(4-Acetyl-1,4-diazepan-1-yl)-2-methoxyphenyl]-1-cyclohexyl-3-methyl-1,6-dihydro-7H-pyrazolo[4,3-d]pyrimidin-7-one], at most 1000 nM.
With `CCN1CCCN(c2ccc(-c3nc4c(C)nn(C5CCCCC5)c4c(=O)[nH]3)c(OC)c2)CC1` [Example 127, 1-Cyclohexyl-5-[4-(4-ethyl-1,4-diazepan-1-yl)-2-methoxyphenyl]-3-methyl-1,6-dihydro-7H-pyrazolo[4,3-d]pyrimidin-7-one] the figure was at most 1000 nM.
With `CNC1CCN(c2cc(OC)c(-c3nc4c(C)nn(C5CCCCC5)c4c(=O)[nH]3)cc2F)CC1` [Example 129, 1-Cyclohexyl-5-{5-fluoro-2-methoxy-4-[4-(methylamino)-1-piperidinyl]phenyl}-3-methyl-1,6-dihydro-7H-pyrazolo[4,3-d]pyrimidin-7-one] the figure was at most 1000 nM; with `CCOc1cc(N2CCCN(C)CC2)ccc1-c1nc2c(C)nn(C3CCCCC3)c2c(=O)[nH]1` [Example 130, 1-Cyclohexyl-5-[4-(4-methyl-1,4-diazepan-1-yl)-2-ethoxyphenyl]-3-methyl-1,6-dihydro-7H-pyrazolo[4,3-d]pyrimidin-7-one], at most 1000 nM; with `COc1cc(N(C)CCN(C)C)ccc1-c1nc2c(c(C3CCCCC3)nn2C)c(=O)[nH]1` [Example 132, 3-Cyclohexyl-6-{4-[[2-(dimethylamino)ethyl](methyl)amino]-2-methoxyphenyl}-1-methyl-1,5-dihydro-4H-pyrazolo[3,4-d]pyrimidin-4-one monomethanesulfonate], at most 10 nM.
